The values below come from US8202863B2 (Aventis Pharmaceuticals Inc., priority 2005, dated 2012).

Assay [1] deals with Hematopoietic PGD2 Synthase (Homo sapiens, UniProt O60760). Nature of the assay: Fluorescence Polarization Assay (Assay 1). The format is binding. The following applies: assigned. An excerpt:
The compounds of the present invention can be tested for enzymatic inhibiting activity against PGD2 Synthase according to either one of the following assays.
Assay 1: Fluorescence Polarization Assay
As described in PCT publication WO 2004/016223, Example II.

For assay [2], the system named is rat. The following applies: rat model; cited from earlier work.
The subject of assay [3] is PGDS. The following applies: literature report; cited from earlier work.
Assay [4] has as its system guinea pig. The following applies: guinea pig model; cited from earlier work.

SMILES strings stand for the structures.

Chain of Hematopoietic PGD2 Synthase (O60760 whole entry): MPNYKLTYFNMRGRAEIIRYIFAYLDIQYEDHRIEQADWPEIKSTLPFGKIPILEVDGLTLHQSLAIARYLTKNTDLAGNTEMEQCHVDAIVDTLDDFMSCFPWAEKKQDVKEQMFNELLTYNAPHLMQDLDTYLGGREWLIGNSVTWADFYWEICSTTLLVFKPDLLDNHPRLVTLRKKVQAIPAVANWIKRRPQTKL

Usually IC50 stands for the midpoint of a concentration-inhibition curve. A low value points to greater potency. In assay [1], `O=C(Nc1ccc2c(c1)CS(=O)(=O)N2)c1cnc(-c2ccccc2)nc1` [Example 8, 2-Phenyl-pyrimidine-5-carboxylic acid (2,2-dioxo-2,3-dihydro-1H-2lamda*6*-benzo[c]isothiazol-5-yl)-amide] showed an IC50 of 2.5 nM.

Consider `c1ccc(C(OC2CCN(CCCc3nn[nH]n3)CC2)c2ccccc2)cc1` [HQL-79], for which the antiasthmatic effect result in assay [2] and in assay [4] was “antiasthmatic” in each case. Besides, the PGDS inhibition result in assay [3] was “weak PGDS inhibitor”. The compound `O=C(NCCc1c[nH]cn1)c1cnc(-c2ccccc2)nc1` [Example 34, 2-Phenyl-pyrimidine-5-carboxylic acid [2-(1H-imidazol-4-yl)-ethyl]-amide] returned an IC50 in assay [1] of 35 nM. This lies in the double-digit nanomolar range. Consider `O=C(Nc1ccccc1)c1cnc(C2CCCCC2)nc1` [Example 114, 2-Cyclohexyl-pyrimidine-5-carboxylic acid phenylamide], for which the IC50 in assay [1] stood at 4960 nM. This IC50 is about 140-fold higher than that of the compound before. Same read-out and setting: the result for `O=C(NCCc1ccc2c(c1)OCO2)c1cnc(-c2ccccc2)nc1` [Example 82, 2-Phenyl-pyrimidine-5-carboxylic acid (2-benzo[133]dioxol-5-yl-ethyl)-amide] reads 2 nM. On to `O=C(Nc1ccc2[nH]ncc2c1)c1cnc(-c2ccccc2)nc1` [Example 83, 2-Pheny-pyrimidine-5-carboxylic acid (1H-indazol-5-yl)-amide], for which the IC50 in assay [1] was determined as 23 nM. Still for that read-out and setting: the result for `O=C(NCc1ccc(-c2cnns2)cc1)c1cnc(-c2ccccc2)nc1` [Example 84] reads 6.5 nM. On the same count and under the same terms, the result for `O=C(NCCN1CCNC1=O)c1cnc(-c2ccccc2)nc1` [Example 33, 2-Phenyl-pyrimidine-5-carboxylic acid [2-(2-oxo-imidazolidin-1-yl)-ethyl]-amide] reads 32 nM.
